US11840525B2, “Use of AURKB small-molecule inhibitors for treatment of non-small cell lung cancer” (Nanjing China-Australia Institute of Translational Medicine …, priority 2016, dated 2023)
Where two headings read alike, the source gives them in different places.

Tests used:
HepG-2 = assay: Growth inhibition of tumor cells, HepG-2; assay type: cell-based; details: Homo sapiens, HepG2; read-out: IC50 against tumor cells, HepG-2
Procedure: (§1) Lung cancer cells A549 were separated into a 96-well plate and respectively added with 10 mM TZ47 stock solution to final concentrations of 0 μM, 0.1 μM, 0.5 μM, 1 μM, 2 μM, 4 μM and 8 μM in respective wells. Then the 96-well plate was incubated at 37° C. for 48 h and the growth of the cells was analyzed by a CCK-8 method. […] It can be seen from Table 1 that TZ47 also plays a desirable role in inhibiting the growth of other cancer cells including colorectal cancer, leukemia, liver cancer, melanoma, breast cancer and ovarian cancer.

GST protein = GST protein (Schistosoma japonicum, UniProt P08515); assay: Microscale thermophoresis (MST) binding to control GST protein
GST protein, sequence (P08515 whole entry): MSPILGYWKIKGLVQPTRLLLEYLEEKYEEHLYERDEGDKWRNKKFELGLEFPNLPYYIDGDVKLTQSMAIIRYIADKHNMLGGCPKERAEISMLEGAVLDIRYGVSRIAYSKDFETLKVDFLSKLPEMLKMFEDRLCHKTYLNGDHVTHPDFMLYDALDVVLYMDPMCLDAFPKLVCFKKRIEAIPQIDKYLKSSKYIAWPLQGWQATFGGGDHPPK

A375 = assay: Growth inhibition of tumor cells, A375; assay type: cell-based; details: Homo sapiens, A-375; read-out: IC50 against tumor cells, A375
Procedure: as §1

A549 cells [1] = assay: Colony formation assay; assay type: cell-based; details: 2 μM, 2 weeks
AURKB = AURKB (Homo sapiens, UniProt Q96GD4); assay: In vitro phosphorylation (kinase activity) assay with Flag-AURKB and histone H3; assay type: biochemical; set-up: made in house; host or cells: 293T cells (transfected with pcDNA-AURKB-Flag); details: 2 μM of TZ47, Flag-AURKB, histone H3 substrate
AURKB, sequence (Q96GD4 1-345 isoform Q96GD4-5): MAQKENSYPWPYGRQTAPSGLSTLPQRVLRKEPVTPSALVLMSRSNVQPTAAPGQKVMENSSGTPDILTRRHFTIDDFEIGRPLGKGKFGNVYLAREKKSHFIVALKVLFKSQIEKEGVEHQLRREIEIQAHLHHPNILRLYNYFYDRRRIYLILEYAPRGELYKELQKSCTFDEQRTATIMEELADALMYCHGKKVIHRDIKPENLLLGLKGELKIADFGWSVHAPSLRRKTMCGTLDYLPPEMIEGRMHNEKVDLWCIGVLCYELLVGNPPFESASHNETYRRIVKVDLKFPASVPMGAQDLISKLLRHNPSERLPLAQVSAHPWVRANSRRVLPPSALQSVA
Procedure: Thus, it is speculated that the treatment affected the activity of a kinase which was able to phosphorylate the H3S10. The following procedures were conducted to verify whether TZ47 inhibited the activity of AURKB directly. First, prokaryotic expression of AURKB protein and purification were performed and then a microscale thermophoresis (MST) was used to detect the binding between TZ47 and AURKB protein by testing the change of microscale thermophoresis caused by the hydrated layer (generally derived from the change of the structure/conformation of biomolecules) based on the directional movement of particles in a microscopic temperature gradient. […] Flag-tagged AURKB protein was then enriched by M2-flag beads (anti-Flag antibody conjugated) from the lysed liquid of 293T cells and used in the in-vitro kinase activity analysis. It can be seen from FIGS. 6A-6B that the Flag-AURKB protein had kinase activity and can phosphorylate histone H3.
The components were mixed according to the above specifications, and reacted at 30° C. for 30 min. After the reaction was completed, the reaction mixture was subjected to western blot assay.

HL-60 = assay: Growth inhibition of tumor cells, HL-60; assay type: cell-based; details: Homo sapiens, read-out: IC50 against tumor cells, HL-60
Procedure: as §1

A549 cells [2] = assay: Autophagy of A549 cells (LC3 western blot); assay type: cell-based; details: increasing concentration of TZ47
A549 cells [3] = assay: Transwell cell migration test; assay type: cell-based; details: 2 μM, 12 h
Procedure: In addition, Transwell test was also conducted to determine the effect of the expression level of AURKB on the cell migration ability. Similarly, TZ47 (2 μM) was used to treat cells in the Transwell test. […] At the same time, compared to the control scr cells, AURKB-kd cells can partially antagonize the inhibitory effect of TZ47 on cell migration (FIGS. 10A-10B). […] The specific steps were described as follows. • a. Cell migration test • 1) The cells to be tested in the logarithmic growth phase was digested with trypsin and centrifuged to collect the cells. Then the cells were washed once with PBS and resuspended with serum-free DMEM for counting. • 2) 500 μl, of DMEM medium containing 10% FBS was added to a 24-well plate and a Transwell chamber was carefully placed into the plate to prevent air bubbles. Then 100 μL of cell suspension (about 50,000 cells) was added to the Transwell chamber, and a TZ47 solution (final concentration: 2 μM) was simultaneously added to the TZ47 treatment group. The 24-well plate was incubated at 37° C. and 5% CO2 in a cell incubator for 12 h. • 3) The Transwell chamber was removed from the plate and washed in PBS to remove the medium. […]

A549 cells [4] = assay: CCK-8 growth inhibition of A549 lung cancer cells; assay type: cell-based; details: Homo sapiens
Procedure: as §1

SMILES: c1ccc2c(Cc3[nH]c4ccccc4c3Cc3c[nH]c4ccccc34)c[nH]c2c1 [TZ47]
- IC50 (HepG-2): 2180 ± 120 nM
- binding to control GST protein (GST protein): did not bind
- IC50 (A375): 1400 ± 110 nM
- colony formation in control cells (A549 cells [1]): significantly inhibited
- kinase activity of AURKB (AURKB): completely inhibited
- IC50 (HL-60): 91.6 ± 2.2 nM
- degree of cell autophagy (A549 cells [2]): increased significantly
- migration ability of cells (A549 cells [3]): significantly showed inhibitory effect
- IC50 (A549 cells [4]; CCK-8, 48 h, read-out: IC50 of TZ47 against A549): 730 nM
- IC50 (A549 cells [4]; read-out: IC50 against tumor cells, A549): 730 ± 240 nM
